Tests used:
[1] = system: chronic obstructive pulmonary disease; settings: 16-week trial; cited from earlier work
TNFalpha = settings: rat; cited from earlier work
Brown Norway rats = settings: orally administered, antigen induced; cited from earlier work
[2] = system: patients with mild-to-moderate persistent atopic asthma; experiment: Asthma Control Questionnaire-7 (ACQ-7), phase II study; assay type: in vivo, human; settings: mixed model, days 8 and 15, effect: treatment; p 0.0430
Text: (§1) Secondary objectives include determinations of FEV1 area under the curve (AUC), evaluations on pre- and post- bronchodilator FEV1, and patient reported outcomes (PROs) including Asthma Control Questionnaire-7 (ACQ-7) and Standardized Asthma Quality of Life Questionnaire (AQLQ(S)).
Table 7 and FIG. 5. Similar trend was observed when comparing Visit and Study Arm* Visit as covariate.

[3] = system: patients with mild-to-moderate persistent atopic asthma; experiment: Trough FEV1 (spirometry), phase II placebo-controlled study; assay type: in vivo, human; settings: for FEV1 LS means difference vs Placebo, Eosinophils category High, Estimate (SE): eosinophils High at V1, p 0.0164; for FEV1 LS means difference vs Placebo, Eosinophils category Low, Estimate (SE): eosinophils Low at V1, p 0.7778
Experimental: (§2) Eosinophils in S.I units (10^9/L) will be converted in cel/µL with the conversion factor 1 × 10^9/L =1000 cel/µL. The primary efficacy analysis on Per Protocol Population was stratified into 2 subgroups based on Eosinophils (cel/ µL) value at visit V1 from Hematology (Low < 300 cel/ µL, and High >=300 cel/ µL). Trough FEV1 on day 16 (+4-day leeway) was summarized by treatment arm and Eosinophils value at visit V1. A mixed model with FEV1 measurements on day 16 (23 h 15 min and 23 h 45 min post-dose), containing treatment arm and Eosinophils strata as fixed effects, site as random effect with baseline FEV1 on visit V5 as a covariate was fitted.
(§3) FEV1. Briefly. Spirometry measurements will be performed using spirometry equipment which meets or exceeds the minimal performance recommendations of the ATS/ERS standards (Miller M. R et al, Standardisation of spirometry, Eur Respir J 2005; 26: 319-338). Calibration and quality control should be performed before the site initiation: • a. A 3L syringe will be used to verify spirometer accuracy. • b. The accuracy of the syringe should be certified within the last 12 months and should have an accuracy of ± 15 ml. • c. Before use, the syringe should be maintained at the same temperature as the spirometer to ensure volume stability. • d. For volume-type spirometers, a calibration and leak check must be performed before each testing session according to the manufacturer’s guidelines. A calibration report stored in the site’s source documents is required to confirm the adherence to guidelines. Example of spirometry equipment used in the trial: Jaeger and ERT Spirosphere.
(§4) The present trial is an exploratory study aiming at evaluating the safety, tolerability, and efficacy of a 15-day, once daily administration of 10 mg Compound (I) in subjects with persistent mild-to-moderate atopic asthma. In terms of exploratory efficacy, the primary purpose of this study is to determine whether Compound (I) compared to placebo, improves the FEV1, as well as to provide comparative safety data from this population of asthmatics. Measurements made in this study will also be used to establish whether this treatment improves other variables related to asthma control and lung function.
(§5) A phase II, double-blind, randomized, parallel-group, placebo-controlled multi-center study to investigate the effect of the adenosine A1 receptor antagonist Compound (I) on forced expiratory volume in 1 second (FEV1) in patients with mild-to-moderate persistent atopic asthma.
as §1
A mixed model with FEV1 measurements on day 16 (23 h 15 min and 23h 45 min post-dose), containing treatment arm as a fixed effect, site as random effect with baseline FEV1 on visit V5 as a covariate was fitted. The treatment effect was larger for Compound (l) group compared to placebo, increasing the FEV1 on 180 mL (p= 0.0816).
FEV1: forced expiratory volume in 1 second; SD: standard deviation; SE: standard error; min: minimum; max: maximum; LS: least squares; Cl: confidence interval. Trough FEV1 on day 16 (+4-day leeway), defined as the average of the FEV1 measurements taken at 23 h15 min and 23 h45 min post-dose.

[4] = system: patients with mild-to-moderate persistent atopic asthma; experiment: FEV1 AUC30min-23h30min post-dose, phase II study; assay type: in vivo, human
Text: as §3, §1

[5] = system: allergic/atopic asthmatics; experiment: Safety / adverse events, phase II study; assay type: in vivo, human; settings: safety population
Experimental: as §4
Of the 107 subjects who were screened, 63 (58.9%) met eligibility criteria and were randomized. Of the 63 patients who were randomized, 63 (100%) completed the study (32 and 31 in the Compound (l) and placebo groups, respectively). There were not adverse events for discontinuation. The safety population included 63 (placebo: n=31 and Compound (l): n=32). Results are based on the per protocol population (placebo: n= 27 and Compound (l): n= 31).
The data highlight the potential of the adenosine A1 receptor antagonist Compound (l) as a promising oral asthma therapy. The safety set included all randomized patients who received at least one dose of any study drug.

[6] = system: patients with mild-to-moderate persistent atopic asthma; experiment: Peripheral blood eosinophil count, phase II placebo-controlled study; assay type: in vivo, human; settings: 10 mg once daily
Text: Eosinophil count. Peripheral blood eosinophil counts were obtained from standard complete blood counts done at every centre participating in the study. For example, by using standardized methods on a Beckman Coulter LH series analyzer (Beckman Coulter Ltd, Brea, CA, USA), Negewo, N. A. et al, Peripheral blood eosinophils: a surrogate marker for airway eosinophilia in stable COPD, Int J Chron Obstruct Pulmon Dis. 2016; 11: 1495-1504).
as §2, §4, §5
The study comprises: (i) a minimum of 5-days screening period, during which the subject’s clinical stability and overall eligibility for the study will be assessed; (ii) a weaning phase where a stepwise tapering of the asthma medication will be done upon 7-day periods; (iii) the randomized, parallel-arm treatment period; and (iv) an end-of-study follow-up visit. The asthma medication weaning period comprises three possible visit pathways in order to adjust for each subject’s asthma therapy on study entry. The study comprises a primary analysis population of 58 stable asthmatic subjects managed as described for the objectives, who meet all inclusion criteria and no exclusion criteria and complete a full, valid data set for the primary variable.

COPD patients [7] = settings: baseline sputum eosinophils ≥3%; cited from earlier work
COPD patients [8] = settings: raised baseline eosinophils; cited from earlier work
[9] = change from baseline, 10 mg, N=31

Molecule: O=C(Nc1c(Cl)cncc1Cl)c1ccc(OC(F)F)c(OCC2CC2)c1 [Roflumilast]
- blood eosinophils [1]: not in the blood eosinophils
- eosinophils in sputum and bronchial biopsy samples [1]: significant reduction
- LPS-induced circulating TNFalpha (TNFalpha): abrogated
- bronchoalveolar lavage fluid (BALF) eosinophilia (Brown Norway rats): inhibited

Molecule: N#Cc1sc(NC(=O)[C@H]2CC[C@@H](C(=O)O)C2)nc1-c1ccccc1 [Compound (I), (1R,3S)-3-((5-cyano-4-phenylthiazol-2-yl)carbamoyl)cyclopentane-1-carboxylic acid]
- ACQ-7 overall score, Mean difference vs Placebo (90% Cl) [2]: -0.28
- increase of trough FEV1 [3]: 110 to 200 mL
- Trough FEV1 day 16 (+4-day leeway), LS mean ([3]; 10 mg once daily 15 days, N=31, baseline mean 2.7): 3.1 L
- Trough FEV1 day 16 (+4-day leeway), LS mean difference vs. Placebo ([3]; 10 mg once daily 15 days, p 0.0816): 0.18 L
- FEV1 LS means difference vs Placebo, Eosinophils category High, Estimate (SE) [3]: 0.38 L
- FEV1 LS means difference vs Placebo, Eosinophils category High, Estimate (SE) ([3]; listed as COMPOUND (I)): 0.38 (0.15) L
- FEV1 LS means difference vs Placebo, Eosinophils category Low, Estimate (SE) [3]: 0.04 L
- FEV1 LS means difference vs Placebo, Eosinophils category Low, Estimate (SE) ([3]; listed as COMPOUND (I)): 0.04 (0.15) L
- FEV1 LS means differences in study arm vs Placebo, Estimate (SE) ([3]; mixed model with eosinophils strata, p 0.0596): 0.21 (0.11) L
- FEV1 LS means, Estimate (SE), Eosinophils category High ([3]; mixed model, trough FEV1 day 16, eosinophils High at visit V1, per protocol): 3.06 (0.11) L
- FEV1 LS means, Estimate (SE), Eosinophils category Low ([3]; mixed model, trough FEV1 day 16, eosinophils Low at visit V1, per protocol): 3.04 (0.12) L
- treatment effect, increase of FEV1 compared to placebo ([3]; trough FEV1 day 16, mixed model, p= 0.0816): 180 mL
- FEV1 AUC30min-23h30min post-dose through days 15-to-16, Mean [4, 9]: 4.9
- FEV1 AUC30min-23h30min post-dose through days 15-to-16, Median [4, 9]: 5.7
- FEV1 AUC30min-23h30min post-dose through days 15-to-16, Mean difference vs Placebo (90% Cl) ([4]; p 0.0435): 3.6 (0.96)
- serious adverse events ([5]; 10 mg once daily 15 days): no serious AEs reported
- severity of most adverse events ([5]; both groups): mild/moderate
- Eosinophilic Count on Visit V7 (day 15), Mean ([6]; 15 days, per protocol population, N=30, baseline mean 392.9): 218 cel/ µL
- Eosinophilic Count on Visit V7 (day 15), Median ([6]; 15 days, per protocol population, N=30, baseline median 370.0): 150.0 cel/ µL
- Eosinophilic Count, Absolute Change from Baseline, Mean difference vs Placebo (90% Cl) ([6]; day 15): -233.9 (-Inf, -174.6) cel/ µL
- Eosinophilic Count, Relative Change from Baseline, Mean difference vs Placebo (90% Cl) ([6]; day 15, p-value <0.0001): -68.0 (-Inf, -51.95)
- Eosinophilic Count, Absolute Change from Baseline, Mean ([6]; day 15 vs visit V5): -184.7 cel/ µL
- Eosinophilic Count, Absolute Change from Baseline, Median ([6]; day 15 vs visit V5): -195.0 cel/ µL
- Eosinophilic Count, Relative Change from Baseline, Mean ([6]; day 15 vs visit V5): -46.8
- Eosinophilic Count, Relative Change from Baseline, Median ([6]; day 15 vs visit V5): -64.9

Molecule: benralizumab: humanized, afucosylated, monoclonal antibody targeting the IL5-receptor α-chain
- improvements in exacerbation rates, SGRQ-C, CRQ-SAS scores and FEV1 (COPD patients [7]): not statistically significant

B1: mepolizumab: anti-IL-5 monoclonal antibody (antibody, chains of the INN, looked up, V domains shown)
VH: QVTLRESGPALVKPTQTLTLTCTVSGFSLTSYSVHWVRQPPGKGLEWLGVIWASGGTDYNSALMSRLSISKDTSRNQVVLTMTNMDPVDTATYYCARDPPSSLLRLDYWGRGTPVTVSS
VL: DIVMTQSPDSLAVSLGERATINCKSSQSLLNSGNQKNYLAWYQQKPGQPPKLLIYGASTRESGVPDRFSGSGSGTDFTLTISSLQAEDVAVYYCQNVHSFPFTFGGGTKLEIK
- sputum and blood eosinophil counts compared with placebo (COPD patients [8]): significantly reduced
